Experimental data from ChEMBL document CHEMBL1201862, “PubChem BioAssay data set” (2004).
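Protocol summary: plate cells (96-well), add compound at 5 concentrations, incubate 48 h, interpolate endpoints linearly. Abbreviation: GI50, concentration required for 50% inhibition of growth.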 The source made the active and inactive calls. Rule as the data show it: active = GI50 up to about 1.1 µM and inactive = higher.

Tests used:
Assay in all cases: NCI-60 cell line screen, 48 h
SK-MEL-2 = test system: SK-MEL-2
HCT-116 = test system: HCT-116
OVCAR-5 = test system: OVCAR-5
NCI-H522 = test system: NCI-H522
SK-OV-3 = test system: SK-OV-3
UO-31 = test system: UO-31
SF-268 = test system: SF-268
UACC-257 = test system: UACC-257
OVCAR-3 = test system: OVCAR-3
NCI-H23 = test system: NCI-H23
SK-MEL-28 = test system: SK-MEL-28
TK-10 = test system: TK-10
SNB-75 = test system: SNB-75
HL-60 = test system: HL-60
COLO 205 = test system: COLO 205
A549 = test system: A549
K562 = test system: K562
CAKI-1 = test system: CAKI-1
HOP-62 = test system: HOP-62
RXF 393 = test system: RXF 393

Measured: GI50

CC(C)(C)[Si](OC1CCOC1=O)(c1ccccc1)c1ccccc1 (stereo not drawn)
inactive: SK-MEL-2 16.6 µM | HCT-116 13.6 µM | OVCAR-5 26.7 µM | NCI-H522 13.8 µM | SK-OV-3 33.9 µM | UO-31 27.1 µM | SF-268 23 µM | UACC-257 17.1 µM | OVCAR-3 13.1 µM | NCI-H23 19.4 µM | SK-MEL-28 22.3 µM | TK-10 22.5 µM | SNB-75 23.6 µM | HL-60 14.4 µM | COLO 205 > 10 µM | A549 15.2 µM

NC(=S)N/N=C1\CC(c2ccccc2)Nc2ccccc21 (stereo not drawn)
inactive: NCI-H522 25.2 µM | SK-OV-3 39.1 µM | UO-31 24.5 µM | K562 12.2 µM | SF-268 40.1 µM | OVCAR-3 40.3 µM | NCI-H23 30.2 µM | SK-MEL-28 40.1 µM | TK-10 71.8 µM | SNB-75 16.6 µM | CAKI-1 66.7 µM | HL-60 11 µM | COLO 205 28.1 µM

CC(C)CC(NC(=O)OCc1ccccc1)C(=O)NCCCCC(N)C(=O)NC(CCCCNC(=O)C(CC(C)C)NC(=O)OCc1ccccc1)C(=O)NC(CCCCNC(=O)C(CC(C)C)NC(=O)OCc1ccccc1)C(=O)NC(CCCCNC(=O)C(CC(C)C)NC(=O)OCc1ccccc1)C(=O)NC(CCCCNC(=O)C(CC(C)C)NC(=O)OCc1ccccc1)C(=O)NC(CCCCNC(=O)C(CC(C)C)NC(=O)OCc1ccccc1)C(=O)O (stereo not drawn)
inactive: SK-MEL-2 > 100 µM | HCT-116 > 100 µM | OVCAR-5 > 100 µM | HOP-62 > 100 µM | NCI-H522 > 100 µM | UO-31 > 100 µM | K562 > 100 µM | UACC-257 > 100 µM | OVCAR-3 > 100 µM | NCI-H23 > 100 µM | TK-10 > 100 µM | HL-60 > 100 µM | A549 > 100 µM

O=C1/C(=C/c2ccccc2)NC(=S)N1CN1CCOCC1
inactive: SK-MEL-2 > 100 µM | HCT-116 > 100 µM | OVCAR-5 > 100 µM | HOP-62 > 100 µM | SK-OV-3 > 100 µM | UO-31 > 100 µM | K562 > 100 µM | SF-268 > 100 µM | UACC-257 > 100 µM | OVCAR-3 > 100 µM | NCI-H23 > 100 µM | SK-MEL-28 > 100 µM | TK-10 > 100 µM | SNB-75 > 100 µM | COLO 205 > 100 µM | A549 > 100 µM

Cc1cccc(/C=C2\CCCc3ccccc3C2=O)c1
inactive: SK-MEL-2 16.7 µM | HCT-116 15 µM | OVCAR-5 15 µM | HOP-62 28.8 µM | NCI-H522 12.7 µM | SK-OV-3 62.4 µM | UO-31 26.8 µM | K562 18 µM | SF-268 15.2 µM | UACC-257 21.6 µM | OVCAR-3 26.3 µM | NCI-H23 25.4 µM | SK-MEL-28 23.8 µM | TK-10 27.4 µM | SNB-75 42.2 µM | CAKI-1 30.4 µM | HL-60 12.1 µM | COLO 205 18.9 µM | A549 24.2 µM

COc1ccc(C2=NN(c3nsc4ccccc34)C(=O)CC2)cc1
inactive: SK-MEL-2 > 100 µM | HCT-116 54.2 µM | OVCAR-5 > 100 µM | RXF 393 > 100 µM | HOP-62 > 100 µM | UO-31 59.2 µM | K562 36 µM | SF-268 > 100 µM | UACC-257 > 100 µM | OVCAR-3 32.3 µM | NCI-H23 > 100 µM | SK-MEL-28 > 100 µM | TK-10 > 100 µM | SNB-75 84.3 µM | HL-60 39.4 µM | COLO 205 > 100 µM | A549 > 100 µM

NC(=O)c1csc(C2O[C@@H](COP(=O)(O)OP(=O)(O)OC[C@H]3OC(n4cnc5c(N)ncnc54)[C@H](O)[C@@H]3O)[C@H](O)[C@@H]2O)n1 (stereo partly drawn)
inactive: SK-MEL-2 > 100 µM | OVCAR-5 > 100 µM | HOP-62 > 100 µM | NCI-H522 52.8 µM | SK-OV-3 > 100 µM | UO-31 > 100 µM | K562 23.6 µM | SF-268 64 µM | UACC-257 66.8 µM | OVCAR-3 > 100 µM | NCI-H23 > 100 µM | SK-MEL-28 30 µM | TK-10 > 100 µM | SNB-75 45 µM | CAKI-1 97.9 µM | HL-60 67.3 µM | COLO 205 > 100 µM | A549 > 100 µM

c1cc(CN2CCNCCNCCNCC2)cc(CN2CCNCCNCCNCC2)c1
inactive: SK-MEL-2 > 100 µM | HCT-116 > 100 µM | OVCAR-5 > 100 µM | HOP-62 > 100 µM | SK-OV-3 > 100 µM | UO-31 > 100 µM | K562 > 100 µM | SF-268 > 100 µM | UACC-257 > 100 µM | OVCAR-3 > 100 µM | NCI-H23 > 100 µM | SK-MEL-28 > 100 µM | TK-10 > 100 µM | SNB-75 > 100 µM | COLO 205 > 100 µM | A549 > 100 µM
